# Test results from patent EP4806900A2, “RAS INHIBITORS” (Revolution Medicines, Inc., priority 2019, dated 2021).
# System: NCI-H358 (K-Ras G12C)
# Test: CellTiter-Glo cell viability assay, NCI-H358
# Assay type: cell-based, human
# Conditions: Table 5; read-out: H358 Cell Viability assay data (K-Ras G12C, IC50)
# Protocol: Note - The following protocol describes a procedure for monitoring cell viability of K-Ras mutant cancer cell lines in response to a compound of the invention. Other RAS isoforms may be employed, though the number of cells to be seeded will vary based on cell line used.
# Test compounds (132.5 nL) were directly dispensed into the assay plates containing cells. […] On day 5, assay plates and their contents were equilibrated to room temperature for approximately 30 minutes. […] Luminescence was measured using the PerkinElmer Enspire. Data were normalized by the following: (Sample signal/Avg. DMSO)*100. The data were fit using a four-parameter logistic fit.
row,SMILES,IC50 [nM]
1,"C=CC(=O)N1CC[C@H](C(=O)N(C)[C@H](C(=O)N[C@H]2Cc3cc(N)cc(c3)-c3ccc4c(c3)c(c(-c3ccccc3CCOC)n4CC)CC(C)(C)COC(=O)[C@@H]3CCCN(N3)C2=O)C(C)C)C1 [Compound A2, (2S)-N-[(8S,14S)-4-amino-22-ethyl-21-[2-(2-methoxyethyl)phenyl]-18,18-dimethyl-9,15-dioxo-16-oxa-10,22,28-triazapentacyclo[18.5.2.1^2,6.1^10,^14.0^23,^27]nonacosa-1(26),2,4,6(29),20,23(27),24-heptaen-8-yl]-3-methyl-2-{N-methyl-1-[(3S)-1-(prop-2-enoyl)pyrrolidin-3-yl]formamido}butanamide]",> 1000
2,C=CC(=O)N1CC[C@H](C(=O)N(C)[C@H](C(=O)N[C@H]2Cc3cc(O)cc(c3)-c3ccc4c(c3)c(c(-c3ccc(CN(C)C)cc3)n4CC)CC(C)(C)COC(=O)[C@@H]3CCCN(N3)C2=O)C(C)C)C1 [Compound A3],100 to 1000
3,C=CC(=O)N1CC[C@H](C(=O)N(C)[C@H](C(=O)N[C@H]2Cc3cc(O)cc(c3)-c3ccc4c(c3)c(c(-c3ccccc3CN(C)C)n4CC)CC(C)(C)COC(=O)[C@@H]3CCCN(N3)C2=O)C(C)C)C1 [Compound A5],10 to 100
4,C=CC(=O)N1CC[C@H](C(=O)N(C)[C@H](C(=O)N[C@H]2Cc3cc(O)cc(c3)-c3ccc4c(c3)c(c(-c3ccccc3CCOC)n4CC)CC(C)(C)COC(=O)[C@@H]3CCCN(N3)C2=O)C2CCOCC2)C1 [Compound A6],100 to 1000
5,C=CC(=O)N1CC[C@H](C(=O)N(C)[C@H](C(=O)N[C@H]2Cc3cc(OC(=O)CCN4CCN(C)CC4)cc(c3)-c3ccc4c(c3)c(c(-c3ccccc3CCOC)n4CC)CC(C)(C)COC(=O)[C@@H]3CCCN(N3)C2=O)C(C)C)C1 [Compound A7],100 to 1000
6,C=CC(=O)N1CC[C@H](C(=O)N(C)[C@H](C(=O)N[C@H]2Cc3cc(OC(=O)CN)cc(c3)-c3ccc4c(c3)c(c(-c3ccccc3CCOC)n4CC)CC(C)(C)COC(=O)[C@@H]3CCCN(N3)C2=O)C(C)C)C1 [Compound A8],100 to 1000
7,C=CC(=O)N1CC[C@H](C(=O)N(C)[C@H](C(=O)N[C@H]2Cc3cc(cc(O)c3F)-c3ccc4c(c3)c(c(-c3ccccc3CCOC)n4CC)CC(C)(C)COC(=O)[C@@H]3CCCN(N3)C2=O)C(C)C)C1 [Compound A9],100 to 1000
8,C=CC(=O)N1CCC(F)(C(=O)N(C)[C@H](C(=O)N[C@H]2Cc3cc(O)cc(c3)-c3ccc4c(c3)c(c(-c3ccccc3CCOC)n4CC)CC(C)(C)COC(=O)[C@@H]3CCCN(N3)C2=O)C(C)C)CC1 [Compound A11],100 to 1000
9,C=CC(=O)N1CCCN(C(=O)N(C)[C@H](C(=O)N[C@H]2Cc3cc(O)cc(c3)-c3ccc4c(c3)c(c(-c3ccccc3CCOC)n4CC)CC(C)(C)COC(=O)[C@@H]3CCCN(N3)C2=O)C(C)C)CC1 [Compound A13],100 to 1000
10,C=CC(=O)N1CCC(C(=O)N(C)[C@H](C(=O)N[C@H]2Cc3cc(O)cc(c3)-c3ccc4c(c3)c(c(-c3ccccc3CCOC)n4CC)CC(C)(C)COC(=O)[C@@H]3CCCN(N3)C2=O)C(C)C)CC1 [Compound A14],100 to 1000
11,C=CC(=O)N1CC[C@H](C(=O)N(C)[C@H](C(=O)N[C@H]2Cc3cc(O)cc(c3)-c3ccc4c(c3)c(c(-c3cccnc3COC)n4CC)CC(C)(C)COC(=O)[C@@H]3CCCN(N3)C2=O)C(C)C)C1 [Compound A16],10 to 100
12,C=CC(=O)N1CC[C@H](C(=O)N(C)[C@H](C(=O)N[C@H]2Cc3cc(O)cc(c3)-c3ccc4c(c3)c(c(-c3ccccc3OC)n4CC)CC(C)(C)COC(=O)[C@@H]3CCCN(N3)C2=O)C(C)C)C1 [Compound A17],100 to 1000
13,C=CC(=O)N1CCN(C(=O)N(C)[C@H](C(=O)N[C@H]2Cc3cc(O)cc(c3)-c3ccc4c(c3)c(c(-c3ccccc3CCOC)n4CC)CC(C)(C)COC(=O)[C@@H]3CCCN(N3)C2=O)C(C)C)CC1 [Compound A18],100 to 1000
14,CCn1c(-c2ccccc2CCOC)c2c3cc(ccc31)-c1cc(O)cc(c1)C[C@H](NC(=O)[C@H](C(C)C)N(C)C(=O)C1CCN(C(=O)/C=C/CN(C)C)CC1)C(=O)N1CCC[C@H](N1)C(=O)OCC(C)(C)C2 [Compound A19],100 to 1000
15,C=CC(=O)N1CCC(F)(C(=O)N(C)[C@H](C(=O)N[C@H]2Cc3cc(O)cc(c3)-c3ccc4c(c3)c(c(-c3ccccc3CN(C)C)n4CC)CC(C)(C)COC(=O)[C@@H]3CCCN(N3)C2=O)C(C)C)CC1 [Compound A20],10 to 100
16,C=CC(=O)N1CC[C@H](C(=O)N(C)[C@H](C(=O)N[C@H]2Cc3cc(O)cc(c3)-c3ccc4c(c3)c(c(-c3ccc(CC(=O)O)cc3)n4CC)CC(C)(C)COC(=O)[C@@H]3CCCN(N3)C2=O)C(C)C)C1 [Compound A21],> 1000
17,C=CC(=O)N1CC[C@H](C(=O)N(C)[C@H](C(=O)N[C@H]2Cc3cc(O)cc(c3)-c3ccc4c(c3)c(c(-c3ccccc3[C@H](C)OC)n4CC)CC(C)(C)COC(=O)[C@@H]3CCCN(N3)C2=O)C(C)C)C1 [Compound A22],10 to 100
18,C=CC(=O)N1CC[C@H](C(=O)N(C)[C@H](C(=O)N[C@H]2Cc3cc(O)cc(c3)-c3ccc4c(c3)c(c(-c3ccccc3)n4CC)CC(C)(C)COC(=O)[C@@H]3CCCN(N3)C2=O)C(C)C)C1 [Compound A23],100 to 1000

row,SMILES,IC50 [nM]
1,C=CC(=O)N1CC[C@H](C(=O)N(C)[C@H](C(=O)N[C@H]2Cc3cccc(c3)-c3ccc4c(c3)c(c(-c3ccccc3CCOC)n4CC)CC(C)(C)COC(=O)[C@@H]3CCCN(N3)C2=O)C(C)C)C1 [Compound A24],> 1000
2,C=CC(=O)N1CC[C@H](C(=O)N(C)[C@H](C(=O)N[C@H]2Cc3cc(O)cc(c3)-c3ccc4c(c3)c(c(-c3c(F)cccc3CCOC)n4CC)CC(C)(C)COC(=O)[C@@H]3CCCN(N3)C2=O)C(C)C)C1 [Compound A25],100 to 1000
3,C=CC(=O)N1CC[C@H](C(=O)N(C)[C@H](C(=O)N[C@H]2Cc3cc(O)cc(c3)-c3ccc4c(c3)c(c(-c3ccccc3N3CCOCC3)n4CC)CC(C)(C)COC(=O)[C@@H]3CCCN(N3)C2=O)C(C)C)C1 [Compound A26],100 to 1000
4,C=CC(=O)N1CC[C@H](C(=O)N(C)[C@H](C(=O)N[C@H]2Cc3cc(O)cc(c3)-c3ccc4c(c3)c(c(-c3ccccc3COC)n4CC)CC(C)(C)COC(=O)[C@@H]3CCCN(N3)C2=O)C2CCCC2)C1 [Compound A27],10 to 100
5,C=CC(=O)N1CC[C@H](C(=O)N(C)[C@H](C(=O)N[C@H]2Cc3cc(O)cc(c3)-c3ccc4c(c3)c(c(-c3ccccc3[C@@H](C)OC)n4CC)CC(C)(C)COC(=O)[C@@H]3CCCN(N3)C2=O)C(C)C)C1 [Compound A29],100 to 1000
6,C=CC(=O)N1CC[C@H](C(=O)N(C)[C@H](C(=O)N[C@H]2Cc3cc(O)cc(c3)-c3ccc4c(c3)c(c(-c3cccc(CN(C)C)c3)n4CC)CC(C)(C)COC(=O)[C@@H]3CCCN(N3)C2=O)C(C)C)C1 [Compound A30],10 to 100
7,C=CC(=O)N1CC2(CCN([C@H](C(=O)N[C@H]3Cc4cc(O)cc(c4)-c4ccc5c(c4)c(c(-c4ccccc4CCOC)n5CC)CC(C)(C)COC(=O)[C@@H]4CCCN(N4)C3=O)C(C)C)C2=O)C1 [Compound A31],10 to 100
8,C=CC(=O)N1CCC(C(=O)N(C)[C@H](C(=O)N[C@H]2Cc3cc(O)cc(c3)-c3ccc4c(c3)c(c(-c3ccccc3CN(C)C)n4CC)CC(C)(C)COC(=O)[C@@H]3CCCN(N3)C2=O)C(C)C)CC1 [Compound A33],100 to 1000
9,C=CC(=O)N1CC[C@H](C(=O)N(C)[C@H](C(=O)N[C@H]2Cc3cc(O)cc(c3)-c3ccc4c(c3)c(c(-c3ccccc3CCOC)n4C(C)(C)C#N)CC(C)(C)COC(=O)[C@@H]3CCCN(N3)C2=O)C(C)C)C1 [Compound A34],10 to 100
10,C=CC(=O)N1CC[C@H](C(=O)N(C)[C@H](C(=O)N[C@H]2Cc3cc(O)cc(c3)-c3ccc4c(c3)c(c(-c3ccc5cc(CN(C)C)n(C)c5c3)n4CC)CC(C)(C)COC(=O)[C@@H]3CCCN(N3)C2=O)C(C)C)C1 [Compound A35],10 to 100
11,CCn1c(-c2ccccc2CCOC)c2c3cc(ccc31)-c1cc(O)cc(c1)C[C@H](NC(=O)[C@H](C(C)C)N(C)C(=O)[C@H]1CCN(C(=O)C#CCN(C)C)C1)C(=O)N1CCC[C@H](N1)C(=O)OCC(C)(C)C2 [Compound A38],< 10
12,C=CC(=O)N1CC[C@H](C(=O)N(C)[C@H](C(=O)N[C@H]2Cc3cc(O)cc(c3)-c3ccc4c(c3)c(c(-c3ccc(C5CCN(C)CC5)cc3)n4CC)CC(C)(C)COC(=O)[C@@H]3CCCN(N3)C2=O)C(C)C)C1 [Compound A39],10 to 100
13,C=CC(=O)N1CC[C@H](C(=O)N(C)[C@H](C(=O)N[C@H]2Cc3cc(O)cc(c3)-c3ccc4c(c3)c(c(-c3ccc5c(c3)CCN(C)C5)n4CC)CC(C)(C)COC(=O)[C@@H]3CCCN(N3)C2=O)C(C)C)C1 [Compound A40],10 to 100
14,C=CC(=O)N1C[C@H](C)[C@H](C(=O)N(C)[C@H](C(=O)N[C@H]2Cc3cc(O)cc(c3)-c3ccc4c(c3)c(c(-c3ccccc3CCOC)n4CC)CC(C)(C)COC(=O)[C@@H]3CCCN(N3)C2=O)C(C)C)C1 [Compound A41],10 to 100
15,C=CC(=O)N1CC[C@H](C(=O)N(C)[C@H](C(=O)N[C@H]2Cc3cc(N)cc(c3)-c3ccc4c(c3)c(c(-c3ccccc3COC)n4CC)CC(C)(C)COC(=O)[C@@H]3CCCN(N3)C2=O)C(C)C)C1 [Compound A42],100 to 1000
16,C=CC(=O)N1C[C@H](C)[C@H](C(=O)N(C)[C@H](C(=O)N[C@H]2Cc3cc(O)cc(c3)-c3ccc4c(c3)c(c(-c3ccccc3CN(C)C)n4CC)CC(C)(C)COC(=O)[C@@H]3CCCN(N3)C2=O)C2CCCC2)C1 [Compound A43],10 to 100
17,C=CC(=O)N1CC[C@H](C(=O)N(C)[C@H](C(=O)N[C@H]2Cc3cc(O)cc(c3)-c3ccc4c(c3)c(c(-c3cccnc3COCC)n4CC)CC(C)(C)COC(=O)[C@@H]3CCCN(N3)C2=O)C(C)C)C1 [Compound A44],10 to 100
18,C=CC(=O)N1CC[C@H](C(=O)N(C)[C@H](C(=O)N[C@H]2Cc3cc(O)cc(c3)-c3ccc4c(c3)c(c(-c3cccnc3)n4CC)CC(C)(C)COC(=O)[C@@H]3CCCN(N3)C2=O)C(C)C)C1 [Compound A45],10 to 100
